# Results from PMC5218480 (PLoS ONE, 2017).
# System: MV-4-11 cells
# Experiment: Gene expression microarray analysis (Affymetrix PrimeView) and GSEA
# Type: cell-based, human
# Parameters: RFU PODN (11730768_x_at) / Fold change /veh PODN (11730768_x_at) / RFU LINC00158 (11744669_a_at) / Fold change /veh LINC00158 (11744669_a_at) / RFU DUSP10 (11751237_a_at) / Fold change /veh DUSP10 (11751237_a_at) / RFU ID3 (11757404_x_at) / Fold change /veh ID3 (11757404_x_at) / RFU PLEKHG5 (11737974_s_at) / Fold change /veh PLEKHG5 (11737974_s_at) / RFU LRRC4B (11730491_at) / Fold change /veh LRRC4B (11730491_at) / RFU GIMAP4 (11747438_a_at) / Fold change /veh GIMAP4 (11747438_a_at) / RFU KRT8 (11758183_x_at) / Fold change /veh KRT8 (11758183_x_at) / RFU CNN1 (11734310_a_at) / Fold change /veh CNN1 (11734310_a_at) / RFU VPS37D (11726825_at) / Fold change /veh VPS37D (11726825_at) / RFU C10orf10 (11716522_x_at) / Fold change /veh C10orf10 (11716522_x_at) / RFU KIR2DL2 /// KIR2DL4 /// KIR2DL5A /// KIR2DL5B /// KIR2DS1 /// KIR2DS2 /// KIR2DS3 /// KIR2DS4 /// KIR3DL3 /// KIR3DL3 /// KIR3DS1 (11738374_at) / Fold change /veh KIR2DL2 /// KIR2DL4 /// KIR2DL5A /// KIR2DL5B /// KIR2DS1 /// KIR2DS2 /// KIR2DS3 /// KIR2DS4 /// KIR3DL3 /// KIR3DL3 /// KIR3DS1 (11738374_at) / RFU C1QL1 (11718748_at) / Fold change /veh C1QL1 (11718748_at) / RFU TMPRSS4 (11747572_a_at) / Fold change /veh TMPRSS4 (11747572_a_at) / RFU HAMP (11756126_x_at) / Fold change /veh HAMP (11756126_x_at) / RFU RNFT2 (11725882_a_at) / Fold change /veh RNFT2 (11725882_a_at) / RFU NR4A2 (11747474_a_at) / Fold change /veh NR4A2 (11747474_a_at) / RFU ABCC12 (11746883_a_at) / Fold change /veh ABCC12 (11746883_a_at) / RFU TMEM136 (11760407_x_at) / Fold change /veh TMEM136 (11760407_x_at) / RFU CLDN22 /// WWC2 (11732394_at) / Fold change /veh CLDN22 /// WWC2 (11732394_at) / RFU HLA-DPB1 (11760878_x_at) / Fold change /veh HLA-DPB1 (11760878_x_at) / RFU SPINT1 (11716480_a_at) / Fold change /veh SPINT1 (11716480_a_at) / RFU GAP43 (11754022_s_at) / Fold change /veh GAP43 (11754022_s_at) / RFU A4GNT (11735810_at) / Fold change /veh A4GNT (11735810_at) / RFU PRB3 (11715151_x_at) / Fold change /veh PRB3 (11715151_x_at) / RFU TUBB4B (11761932_at) / Fold change /veh TUBB4B (11761932_at) / RFU CAPN14 (11732068_a_at) / Fold change /veh CAPN14 (11732068_a_at) / RFU TMCC2 (11721928_a_at) / Fold change /veh TMCC2 (11721928_a_at) / RFU IRGQ (11745062_a_at) / Fold change /veh IRGQ (11745062_a_at) / RFU FAM174B (11720279_a_at) / Fold change /veh FAM174B (11720279_a_at) / RFU TMPRSS4 (11748680_a_at) / Fold change /veh TMPRSS4 (11748680_a_at) / RFU FAM212B (11763350_a_at) / Fold change /veh FAM212B (11763350_a_at) / RFU PLEKHG5 (11743358_a_at) / Fold change /veh PLEKHG5 (11743358_a_at) / RFU ZSCAN30 (11745921_a_at) / Fold change /veh ZSCAN30 (11745921_a_at) / RFU CMKLR1 (11741424_a_at) / Fold change /veh CMKLR1 (11741424_a_at) / RFU LOC101060620 /// MAPK8IP1 (11723275_at) / Fold change /veh LOC101060620 /// MAPK8IP1 (11723275_at) / RFU SPTSSB (11747773_x_at) / Fold change /veh SPTSSB (11747773_x_at) / RFU PRSS12 (11739890_at) / Fold change /veh PRSS12 (11739890_at) / RFU BIN1 (11741810_x_at) / Fold change /veh BIN1 (11741810_x_at) / RFU WNT11 (11732464_a_at) / Fold change /veh WNT11 (11732464_a_at) / RFU C10orf10 (11716521_a_at) / Fold change /veh C10orf10 (11716521_a_at) / RFU C5orf56 (11738089_at) / Fold change /veh C5orf56 (11738089_at) / RFU CYB561 (11721691_x_at) / Fold change /veh CYB561 (11721691_x_at) / RFU ANKRD19P (11752326_a_at) / Fold change /veh ANKRD19P (11752326_a_at) / RFU OR2T12 /// OR2T33 /// OR2T8 (11738714_s_at) / Fold change /veh OR2T12 /// OR2T33 /// OR2T8 (11738714_s_at) / RFU VCAN (11748164_a_at) / Fold change /veh VCAN (11748164_a_at) / RFU JSRP1 (11732532_at) / Fold change /veh JSRP1 (11732532_at) / RFU KRTAP10-11 (11738290_x_at) / Fold change /veh KRTAP10-11 (11738290_x_at) / RFU MYO3A (11730013_a_at) / Fold change /veh MYO3A (11730013_a_at) / RFU EBF3 (11725865_a_at) / Fold change /veh EBF3 (11725865_a_at) / RFU CAMK2N1 (11719241_x_at) / Fold change /veh CAMK2N1 (11719241_x_at) / RFU C5orf56 (11738088_a_at) / Fold change /veh C5orf56 (11738088_a_at) / RFU OLFML3 (11715873_a_at) / Fold change /veh OLFML3 (11715873_a_at) / RFU LOC100653217 /// NTM (11731650_a_at) / Fold change /veh LOC100653217 /// NTM (11731650_a_at) / RFU MAPK11 (11762145_a_at) / Fold change /veh MAPK11 (11762145_a_at) / RFU FIZ1 (11724087_x_at) / Fold change /veh FIZ1 (11724087_x_at) / RFU OASL (11726364_x_at) / Fold change /veh OASL (11726364_x_at) / RFU SOX15 (11748057_x_at) / Fold change /veh SOX15 (11748057_x_at) / RFU CD79A (11719716_a_at) / Fold change /veh CD79A (11719716_a_at) / RFU HIST1H1D (11736915_at) / Fold change /veh HIST1H1D (11736915_at) / RFU CASKIN2 (11723855_a_at) / Fold change /veh CASKIN2 (11723855_a_at) / RFU LOC730098 (11760151_x_at) / Fold change /veh LOC730098 (11760151_x_at) / RFU OR4N2 (11742367_at) / Fold change /veh OR4N2 (11742367_at) / RFU PRRT2 (11749266_a_at) / Fold change /veh PRRT2 (11749266_a_at) / RFU SNX32 (11753110_a_at) / Fold change /veh SNX32 (11753110_a_at) / RFU CDHR5 (11726645_a_at) / Fold change /veh CDHR5 (11726645_a_at) / RFU RCAN1 (11760418_a_at) / Fold change /veh RCAN1 (11760418_a_at) / RFU FAM167A (11723789_a_at) / Fold change /veh FAM167A (11723789_a_at) / RFU FAM26E (11764081_at) / Fold change /veh FAM26E (11764081_at) / RFU ISYNA1 (11749810_s_at) / Fold change /veh ISYNA1 (11749810_s_at) / RFU ACY1 (11761880_at) / Fold change /veh ACY1 (11761880_at) / RFU 11764098_at / Fold change /veh 11764098_at / RFU SAMD14 (11745864_x_at) / Fold change /veh SAMD14 (11745864_x_at) / RFU NPB (11741838_a_at) / Fold change /veh NPB (11741838_a_at) / RFU TMPRSS6 (11731388_a_at) / Fold change /veh TMPRSS6 (11731388_a_at) / RFU KRTAP10-2 (11738614_at) / Fold change /veh KRTAP10-2 (11738614_at) / RFU ARHGAP8 /// PRR5-ARHGAP8 (11727945_x_at) / Fold change /veh ARHGAP8 /// PRR5-ARHGAP8 (11727945_x_at) / RFU KRTAP5-7 /// NADSYN1 (11734609_at) / Fold change /veh KRTAP5-7 /// NADSYN1 (11734609_at) / RFU RASL12 (11751679_a_at) / Fold change /veh RASL12 (11751679_a_at) / RFU CDKN2B (11736163_a_at) / Fold change /veh CDKN2B (11736163_a_at) / RFU PRF1 (11729649_at) / Fold change /veh PRF1 (11729649_at) / RFU, ZNF638 /// ZNF638-IT1 / Fold change vs veh, ZNF638 /// ZNF638-IT1 / RFU, PANK3 / Fold change vs veh, PANK3 / RFU, SH3YL1 / Fold change vs veh, SH3YL1 / RFU, ZEB2 / Fold change vs veh, ZEB2 / RFU, NRIP1 / Fold change vs veh, NRIP1 / RFU, PTTG1IP / Fold change vs veh, PTTG1IP / RFU, CAPN2 / Fold change vs veh, CAPN2 / RFU, MED14 / Fold change vs veh, MED14 / RFU, SNORA58 / Fold change vs veh, SNORA58 / RFU, C1orf63 / Fold change vs veh, C1orf63 / RFU, LRRFIP1 / Fold change vs veh, LRRFIP1 / RFU, NDUFAF7 / Fold change vs veh, NDUFAF7 / RFU, SLC12A2 / Fold change vs veh, SLC12A2 / RFU, IBTK / Fold change vs veh, IBTK / RFU, ESF1 / Fold change vs veh, ESF1 / Fold change vs veh, TMEM50B / RFU, TAOK1 / Fold change vs veh, TAOK1 / RFU, ACBD3 / Fold change vs veh, ACBD3 / RFU, TMA16 / Fold change vs veh, TMA16 / RFU, RWDD3 / Fold change vs veh, RWDD3 / RFU, BCAT1 / Fold change vs veh, BCAT1 / RFU, EDEM3 / Fold change vs veh, EDEM3 / RFU, TMEM33 / Fold change vs veh, TMEM33 / RFU, WDR75 / Fold change vs veh, WDR75 / RFU, AHCTF1 / Fold change vs veh, AHCTF1 / RFU, TFRC / Fold change vs veh, TFRC / RFU, ZDHHC17 / Fold change vs veh, ZDHHC17 / RFU, NOM1 / Fold change vs veh, NOM1 / RFU, ARL8B / Fold change vs veh, ARL8B / RFU, ZBTB11 / Fold change vs veh, ZBTB11 / RFU, TAMM41 / Fold change vs veh, TAMM41 / RFU, KIAA1704 /// LOC100996395 / Fold change vs veh, KIAA1704 /// LOC100996395 / RFU, ING1 / Fold change vs veh, ING1 / RFU, TRMT61B / Fold change vs veh, TRMT61B / RFU, FUBP3 / Fold change vs veh, FUBP3 / RFU, TP53 / Fold change vs veh, TP53 / RFU, TNKS2 / Fold change vs veh, TNKS2 / RFU, ZFP14 / Fold change vs veh, ZFP14 / RFU, ACTR2 / Fold change vs veh, ACTR2 / RFU, PPP3R1 / Fold change vs veh, PPP3R1 / RFU, PIK3R1 / Fold change vs veh, PIK3R1 / RFU, HNRNPA1 / Fold change vs veh, HNRNPA1 / RFU, RNF170 / Fold change vs veh, RNF170 / RFU, ZNF28 / Fold change vs veh, ZNF28 / RFU, RNGTT / Fold change vs veh, RNGTT / RFU, OGT / Fold change vs veh, OGT / RFU, BRD1 / Fold change vs veh, BRD1 / RFU, MARS / Fold change vs veh, MARS / RFU, ZNF655 / Fold change vs veh, ZNF655 / RFU, FAHD1 / Fold change vs veh, FAHD1 / RFU, BDP1 / Fold change vs veh, BDP1 / RFU, LRRCC1 / Fold change vs veh, LRRCC1 / RFU, ARID1A / Fold change vs veh, ARID1A / RFU, ZNF146 / Fold change vs veh, ZNF146 / RFU, ZNF330 / Fold change vs veh, ZNF330 / RFU, GPN3 / Fold change vs veh, GPN3 / RFU, C9orf123 / Fold change vs veh, C9orf123 / RFU, N4BP2L2 / Fold change vs veh, N4BP2L2 / RFU, ARFIP1 / Fold change vs veh, ARFIP1 / RFU, FAM179B / Fold change vs veh, FAM179B / RFU, BCL10 / Fold change vs veh, BCL10 / RFU, UHRF1BP1L / Fold change vs veh, UHRF1BP1L / RFU, BET1 / Fold change vs veh, BET1 / RFU, CNOT2 / Fold change vs veh, CNOT2 / RFU, ZNF268 / Fold change vs veh, ZNF268 / Fold change vs veh, ZNF507 / RFU, DGCR2 / Fold change vs veh, DGCR2 / RFU, WDSUB1 / Fold change vs veh, WDSUB1 / Fold change vs veh, HSP90B1 /// MIR3652 / RFU, ADSS / Fold change vs veh, ADSS / RFU, GK / Fold change vs veh, GK / RFU, ZNF148 / Fold change vs veh, ZNF148 / RFU, TAF9 / Fold change vs veh, TAF9 / RFU, SLC1A5 / Fold change vs veh, SLC1A5 / RFU, SLMO2 / Fold change vs veh, SLMO2 / RFU, ABCC4 / Fold change vs veh, ABCC4 / RFU, LOC101060439 /// RAP1B / Fold change vs veh, LOC101060439 /// RAP1B / RFU, RFX7 / Fold change vs veh, RFX7 / RFU, GTPBP10 / Fold change vs veh, GTPBP10 / RFU, CNEP1R1 / Fold change vs veh, CNEP1R1 / RFU, BIVM-ERCC5 /// ERCC5 / Fold change vs veh, BIVM-ERCC5 /// ERCC5 / RFU, ILF3 / Fold change vs veh, ILF3 / RFU 11762660_at / Fold change /veh 11762660_at / RFU VCAN (11757783_s_at) / Fold change /veh VCAN (11757783_s_at) / RFU DDX43 (11728927_at) / Fold change /veh DDX43 (11728927_at) / RFU KRT8 (11758188_x_at) / Fold change /veh KRT8 (11758188_x_at) / RFU NKD1 (11759106_at) / Fold change /veh NKD1 (11759106_at) / RFU SRD5A1 (11742802_a_at) / Fold change /veh SRD5A1 (11742802_a_at) / RFU TPSAB1 /// TPSB2 (11721975_s_at) / Fold change /veh TPSAB1 /// TPSB2 (11721975_s_at) / RFU GSTM3 (11746129_a_at) / Fold change /veh GSTM3 (11746129_a_at) / RFU IL23R (11737362_x_at) / Fold change /veh IL23R (11737362_x_at) / RFU TMEM51 (11727254_a_at) / Fold change /veh TMEM51 (11727254_a_at) / RFU PIWIL2 (11732686_x_at) / Fold change /veh PIWIL2 (11732686_x_at) / RFU ORM1 (11744905_x_at) / Fold change /veh ORM1 (11744905_x_at) / RFU CCDC152 (11743942_at) / Fold change /veh CCDC152 (11743942_at) / RFU ECM1 (11717891_a_at) / Fold change /veh ECM1 (11717891_a_at) / RFU IL23R (11748794_a_at) / Fold change /veh IL23R (11748794_a_at) / RFU TNFAIP8L3 (11732012_x_at) / Fold change /veh TNFAIP8L3 (11732012_x_at) / RFU MBOAT4 (11741988_at) / Fold change /veh MBOAT4 (11741988_at) / RFU 11764193_at / Fold change /veh 11764193_at / RFU TMEM53 (11763286_at) / Fold change /veh TMEM53 (11763286_at) / RFU MAGEB2 (11727129_at) / Fold change /veh MAGEB2 (11727129_at) / RFU TMEM200A (11744735_a_at) / Fold change /veh TMEM200A (11744735_a_at) / RFU CCDC152 (11751479_a_at) / Fold change /veh CCDC152 (11751479_a_at) / RFU FAM211A (11726209_a_at) / Fold change /veh FAM211A (11726209_a_at) / RFU RGS16 (11746705_a_at) / Fold change /veh RGS16 (11746705_a_at) / RFU VCAN (11755009_s_at) / Fold change /veh VCAN (11755009_s_at) / RFU RHOB (11743442_s_at) / Fold change /veh RHOB (11743442_s_at) / RFU RGS16 (11720943_a_at) / Fold change /veh RGS16 (11720943_a_at) / RFU RGS16 (11720944_at) / Fold change /veh RGS16 (11720944_at) / RFU, VPS4B / Fold change vs veh, VPS4B / RFU, CREB1 / Fold change vs veh, CREB1 / RFU, DNAJC13 / Fold change vs veh, DNAJC13 / RFU, GNAQ / Fold change vs veh, GNAQ / RFU, CDK5R1 / Fold change vs veh, CDK5R1 / RFU, ZRANB3 / Fold change vs veh, ZRANB3 / RFU, CUL4A / Fold change vs veh, CUL4A / RFU, CCNY / Fold change vs veh, CCNY / RFU, UFL1 / Fold change vs veh, UFL1 / RFU, COG3 / Fold change vs veh, COG3 / RFU, DIAPH2 / Fold change vs veh, DIAPH2 / RFU, SKA2 / Fold change vs veh, SKA2 / RFU, AFF3 / Fold change vs veh, AFF3 / RFU, LMF1 / Fold change vs veh, LMF1 / RFU, IPO11 / Fold change vs veh, IPO11 / RFU, DFFB / Fold change vs veh, DFFB / RFU, FOXP1 / Fold change vs veh, FOXP1 / RFU, CARD8 / Fold change vs veh, CARD8 / RFU, STRN3 / Fold change vs veh, STRN3 / RFU, ADK / Fold change vs veh, ADK / RFU, RASSF2 / Fold change vs veh, RASSF2 / RFU, WIPF1 / Fold change vs veh, WIPF1 / RFU, LARP1B / Fold change vs veh, LARP1B / RFU, RASA1 / Fold change vs veh, RASA1 / RFU, RB1 / Fold change vs veh, RB1 / RFU, PPFIA1 / Fold change vs veh, PPFIA1 / RFU, MAT2A / Fold change vs veh, MAT2A / RFU, CCT5 / Fold change vs veh, CCT5 / RFU, WDR92 / Fold change vs veh, WDR92 / RFU, CUX1 / Fold change vs veh, CUX1 / RFU, TTC7A / Fold change vs veh, TTC7A / RFU, TMEM135 / Fold change vs veh, TMEM135 / RFU, DEPTOR / Fold change vs veh, DEPTOR / RFU, CPM / Fold change vs veh, CPM / RFU, DNAJB6 / Fold change vs veh, DNAJB6 / RFU, CACNA2D3 / Fold change vs veh, CACNA2D3 / RFU, DTX4 / Fold change vs veh, DTX4 / RFU, TFCP2 / Fold change vs veh, TFCP2 / RFU, GMCL1 /// GMCL1P1 / Fold change vs veh, GMCL1 /// GMCL1P1 / RFU, AEBP2 / Fold change vs veh, AEBP2 / RFU, SNHG1 /// SNORD22 /// SNORD25 /// SNORD26 /// SNORD27 /// SNORD28 /// SNORD29 /// SNORD31 / Fold change vs veh, SNHG1 /// SNORD22 /// SNORD25 /// SNORD26 /// SNORD27 /// SNORD28 /// SNORD29 /// SNORD31 / Fold change (Aza/veh), C12orf56 (ProbeSet 11735607_a_at) / Fold change (ACY-1035/veh), C12orf56 (ProbeSet 11735607_a_at) / Fold change (Aza/veh), FGFR1OP (ProbeSet 11751329_s_at) / Fold change (ACY-1035/veh), FGFR1OP (ProbeSet 11751329_s_at) / Fold change (Aza/veh), VPS36 (ProbeSet 11739960_a_at) / Fold change (ACY-1035/veh), VPS36 (ProbeSet 11739960_a_at) / RFU SYPL1 (11715823_x_at) / Fold change /veh SYPL1 (11715823_x_at) / RFU IGFBP7 (11715501_s_at) / Fold change /veh IGFBP7 (11715501_s_at) / RFU REEP3 (11722064_at) / Fold change /veh REEP3 (11722064_at) / RFU IGLL1 (11728026_x_at) / Fold change /veh IGLL1 (11728026_x_at): dose or concentration left out as unconfirmed
# Details: ProbeSet 11734782_x_at; LIST D
structure (smiles),measurement,value
Nc1ccc(-c2cccs2)cc1NC(=O)c1ccc2c(c1)cc(C1CC1)n2CCN1CCOCC1 [ACY-1035],"RFU, WDR92",63.28 RFU
